Data from patent US20190247449A1, “COMPOSITIONS COMPRISING A NON-PATHOGENIC BACTERIA AND METHODS FOR […] AND ANIMAL HOSTS FROM FUNGAL, BACTERIAL AND VIRAL DISEASES” (priority 2016, published 2019).

Experiments:
Assay type in all cases: cell-based
NO production = assay: Nitric oxide production by Griess assay in activated macrophages
Description: (§1) RAW 264.7 macrophages were grown in flat-bottomed flasks using a standard growth medium (DMEM supplemented with 5% FBS, antibiotics and glutamine. The cells were maintained in accordance with standard procedures well known in the art. After the cells reached confluence, they were removed from the flasks using mechanical means and then concentrated by centrifuging and resuspended in a small volume of fresh culture medium. The cell concentration was adjusted with growth medium in order that about 75,000 cells could be added to each well of a 96-well plate. A combination of 25 µg/mL LPS and 10 U/ml IFN-γ DMEM, was used for activation of the macrophages. The various test agents were added to the wells one hour prior to activation. The cells were then incubated for a further 24 hours, prior to assaying the inflammatory mediator production and cell viability.
The production of NO by the macrophages subjected to the various treatments was assayed using the Griess reagent (equal volumes of 1% sulphanilamide and 0.1% napthyethylene-diamine in 5% HCl). 70 μL of supernatant from each test well was transferred to a fresh 96-well plate and mixed with 70 μL of Griess reagent and the violet color produced was measured at 540 nm.

TNF-α production = assay: TNF-α determination by ELISA in activated macrophages; conditions: RAW 264.7 macrophages activated with LPS and IFN-γ, agents added one hour before, 24 hours
Description: as §1
A sandwich ELISA was used to determine TNF-α concentration. The primary antibody was used at a concentration of […] in PBS. Serial dilutions of TNF-α standard from 0 to 1000 pg/mL in diluent (0.05% Tween-20, 0.1% BSA in PBS) were used as internal standard. TNF-α was detected with a biotinylated second antibody and an avidin peroxidase conjugate with TMB as detection reagent. The color development was monitored at 655 nm, taking readings after every 5 minutes. After 25 minutes, the reaction was stopped using 0.5 M sulphuric acid and the absorbance was measured at 450 nm.

RAW 264.7 macrophages = assay: Cell viability, Alamar Blue assay; conditions: % of untreated control cells
Description: as §1
The Alamar Blue assay of viability was performed by adding 100 μL of a 10% Alamar Blue solution to each well and incubating at 37° C. for 1-2 hr. Fluorescence was measured (excitation at 545 nm and emission at 595 nm) and expressed as a percentage of the values in untreated control cells.

[1] = at the IC50 for inhibition of NO
[2] = at the IC50 for inhibition of TNF-α

Molecule | IC50 for the inhibition of NO production (NO production; RAW 264.7 macrophages activated with LPS and IFN-γ, agents added one hour before, 24 hours) [µg/mL] | IC50 for the inhibition of TNF-α production (TNF-α production) [µg/mL] | Cell viability (% of cell survival) (RAW 264.7 macrophages; [1]) | Cell viability (% of cell survival) (RAW 264.7 macrophages; [2]) | IC50 (NO production; Mus musculus, RAW264.7, read-out: IC50 for the inhibition of NO production) [µg/mL] | IC50 (TNF-α production; Mus musculus, RAW264.7, read-out: IC50 for the inhibition of TNF-α production) [µg/mL]
Naringin | 40 | 90 | 90.10 ± 4.2 % of cell survival | 91.50 ± 5.2 % of cell survival | – | –
C=C[C@](C)(O)CC[C@@H]1[C@@]2(C)CCCC(C)(C)[C@@H]2CC[C@@]1(C)O [Sclareol] | – | – | 96.20 ± 2.1 % of cell survival | 95.30 ± 2.2 % of cell survival | 40 | 80
Steviol glycoside | – | 80 | 98.20 ± 4.2 % of cell survival | 99.54 ± 4.1 % of cell survival | – | –
